Test results reported in paper PMC5218480 (PLoS ONE, 2017).

System: MV-4-11 cells
Assay: Gene expression microarray analysis (Affymetrix PrimeView) and GSEA
Assay type: cell-based, human
Set-up: RFU PODN (11730768_x_at) / Fold change /veh PODN (11730768_x_at) / RFU LINC00158 (11744669_a_at) / Fold change /veh LINC00158 (11744669_a_at) / RFU DUSP10 (11751237_a_at) / Fold change /veh DUSP10 (11751237_a_at) / RFU ID3 (11757404_x_at) / Fold change /veh ID3 (11757404_x_at) / RFU PLEKHG5 (11737974_s_at) / Fold change /veh PLEKHG5 (11737974_s_at) / RFU LRRC4B (11730491_at) / Fold change /veh LRRC4B (11730491_at) / RFU GIMAP4 (11747438_a_at) / Fold change /veh GIMAP4 (11747438_a_at) / RFU KRT8 (11758183_x_at) / Fold change /veh KRT8 (11758183_x_at) / RFU CNN1 (11734310_a_at) / Fold change /veh CNN1 (11734310_a_at) / RFU VPS37D (11726825_at) / Fold change /veh VPS37D (11726825_at) / RFU C10orf10 (11716522_x_at) / Fold change /veh C10orf10 (11716522_x_at) / RFU KIR2DL2 /// KIR2DL4 /// KIR2DL5A /// KIR2DL5B /// KIR2DS1 /// KIR2DS2 /// KIR2DS3 /// KIR2DS4 /// KIR3DL3 /// KIR3DL3 /// KIR3DS1 (11738374_at) / Fold change /veh KIR2DL2 /// KIR2DL4 /// KIR2DL5A /// KIR2DL5B /// KIR2DS1 /// KIR2DS2 /// KIR2DS3 /// KIR2DS4 /// KIR3DL3 /// KIR3DL3 /// KIR3DS1 (11738374_at) / RFU C1QL1 (11718748_at) / Fold change /veh C1QL1 (11718748_at) / RFU TMPRSS4 (11747572_a_at) / Fold change /veh TMPRSS4 (11747572_a_at) / RFU HAMP (11756126_x_at) / Fold change /veh HAMP (11756126_x_at) / RFU RNFT2 (11725882_a_at) / Fold change /veh RNFT2 (11725882_a_at) / RFU NR4A2 (11747474_a_at) / Fold change /veh NR4A2 (11747474_a_at) / RFU ABCC12 (11746883_a_at) / Fold change /veh ABCC12 (11746883_a_at) / RFU TMEM136 (11760407_x_at) / Fold change /veh TMEM136 (11760407_x_at) / RFU CLDN22 /// WWC2 (11732394_at) / Fold change /veh CLDN22 /// WWC2 (11732394_at) / RFU HLA-DPB1 (11760878_x_at) / Fold change /veh HLA-DPB1 (11760878_x_at) / RFU SPINT1 (11716480_a_at) / Fold change /veh SPINT1 (11716480_a_at) / RFU GAP43 (11754022_s_at) / Fold change /veh GAP43 (11754022_s_at) / RFU A4GNT (11735810_at) / Fold change /veh A4GNT (11735810_at) / RFU PRB3 (11715151_x_at) / Fold change /veh PRB3 (11715151_x_at) / RFU TUBB4B (11761932_at) / Fold change /veh TUBB4B (11761932_at) / RFU CAPN14 (11732068_a_at) / Fold change /veh CAPN14 (11732068_a_at) / RFU TMCC2 (11721928_a_at) / Fold change /veh TMCC2 (11721928_a_at) / RFU IRGQ (11745062_a_at) / Fold change /veh IRGQ (11745062_a_at) / RFU FAM174B (11720279_a_at) / Fold change /veh FAM174B (11720279_a_at) / RFU TMPRSS4 (11748680_a_at) / Fold change /veh TMPRSS4 (11748680_a_at) / RFU FAM212B (11763350_a_at) / Fold change /veh FAM212B (11763350_a_at) / RFU PLEKHG5 (11743358_a_at) / Fold change /veh PLEKHG5 (11743358_a_at) / RFU ZSCAN30 (11745921_a_at) / Fold change /veh ZSCAN30 (11745921_a_at) / RFU CMKLR1 (11741424_a_at) / Fold change /veh CMKLR1 (11741424_a_at) / RFU LOC101060620 /// MAPK8IP1 (11723275_at) / Fold change /veh LOC101060620 /// MAPK8IP1 (11723275_at) / RFU SPTSSB (11747773_x_at) / Fold change /veh SPTSSB (11747773_x_at) / RFU PRSS12 (11739890_at) / Fold change /veh PRSS12 (11739890_at) / RFU BIN1 (11741810_x_at) / Fold change /veh BIN1 (11741810_x_at) / RFU WNT11 (11732464_a_at) / Fold change /veh WNT11 (11732464_a_at) / RFU C10orf10 (11716521_a_at) / Fold change /veh C10orf10 (11716521_a_at) / RFU C5orf56 (11738089_at) / Fold change /veh C5orf56 (11738089_at) / RFU CYB561 (11721691_x_at) / Fold change /veh CYB561 (11721691_x_at) / RFU ANKRD19P (11752326_a_at) / Fold change /veh ANKRD19P (11752326_a_at) / RFU OR2T12 /// OR2T33 /// OR2T8 (11738714_s_at) / Fold change /veh OR2T12 /// OR2T33 /// OR2T8 (11738714_s_at) / RFU VCAN (11748164_a_at) / Fold change /veh VCAN (11748164_a_at) / RFU JSRP1 (11732532_at) / Fold change /veh JSRP1 (11732532_at) / RFU KRTAP10-11 (11738290_x_at) / Fold change /veh KRTAP10-11 (11738290_x_at) / RFU MYO3A (11730013_a_at) / Fold change /veh MYO3A (11730013_a_at) / RFU EBF3 (11725865_a_at) / Fold change /veh EBF3 (11725865_a_at) / RFU CAMK2N1 (11719241_x_at) / Fold change /veh CAMK2N1 (11719241_x_at) / RFU C5orf56 (11738088_a_at) / Fold change /veh C5orf56 (11738088_a_at) / RFU OLFML3 (11715873_a_at) / Fold change /veh OLFML3 (11715873_a_at) / RFU LOC100653217 /// NTM (11731650_a_at) / Fold change /veh LOC100653217 /// NTM (11731650_a_at) / RFU MAPK11 (11762145_a_at) / Fold change /veh MAPK11 (11762145_a_at) / RFU FIZ1 (11724087_x_at) / Fold change /veh FIZ1 (11724087_x_at) / RFU OASL (11726364_x_at) / Fold change /veh OASL (11726364_x_at) / RFU SOX15 (11748057_x_at) / Fold change /veh SOX15 (11748057_x_at) / RFU CD79A (11719716_a_at) / Fold change /veh CD79A (11719716_a_at) / RFU HIST1H1D (11736915_at) / Fold change /veh HIST1H1D (11736915_at) / RFU CASKIN2 (11723855_a_at) / Fold change /veh CASKIN2 (11723855_a_at) / RFU LOC730098 (11760151_x_at) / Fold change /veh LOC730098 (11760151_x_at) / RFU OR4N2 (11742367_at) / Fold change /veh OR4N2 (11742367_at) / RFU PRRT2 (11749266_a_at) / Fold change /veh PRRT2 (11749266_a_at) / RFU SNX32 (11753110_a_at) / Fold change /veh SNX32 (11753110_a_at) / RFU CDHR5 (11726645_a_at) / Fold change /veh CDHR5 (11726645_a_at) / RFU RCAN1 (11760418_a_at) / Fold change /veh RCAN1 (11760418_a_at) / RFU FAM167A (11723789_a_at) / Fold change /veh FAM167A (11723789_a_at) / RFU FAM26E (11764081_at) / Fold change /veh FAM26E (11764081_at) / RFU ISYNA1 (11749810_s_at) / Fold change /veh ISYNA1 (11749810_s_at) / RFU ACY1 (11761880_at) / Fold change /veh ACY1 (11761880_at) / RFU 11764098_at / Fold change /veh 11764098_at / RFU SAMD14 (11745864_x_at) / Fold change /veh SAMD14 (11745864_x_at) / RFU NPB (11741838_a_at) / Fold change /veh NPB (11741838_a_at) / RFU TMPRSS6 (11731388_a_at) / Fold change /veh TMPRSS6 (11731388_a_at) / RFU KRTAP10-2 (11738614_at) / Fold change /veh KRTAP10-2 (11738614_at) / RFU ARHGAP8 /// PRR5-ARHGAP8 (11727945_x_at) / Fold change /veh ARHGAP8 /// PRR5-ARHGAP8 (11727945_x_at) / RFU KRTAP5-7 /// NADSYN1 (11734609_at) / Fold change /veh KRTAP5-7 /// NADSYN1 (11734609_at) / RFU RASL12 (11751679_a_at) / Fold change /veh RASL12 (11751679_a_at) / RFU CDKN2B (11736163_a_at) / Fold change /veh CDKN2B (11736163_a_at) / RFU PRF1 (11729649_at) / Fold change /veh PRF1 (11729649_at) / RFU, ZNF638 /// ZNF638-IT1 / Fold change vs veh, ZNF638 /// ZNF638-IT1 / RFU, PANK3 / Fold change vs veh, PANK3 / RFU, SH3YL1 / Fold change vs veh, SH3YL1 / RFU, ZEB2 / Fold change vs veh, ZEB2 / RFU, NRIP1 / Fold change vs veh, NRIP1 / RFU, PTTG1IP / Fold change vs veh, PTTG1IP / RFU, CAPN2 / Fold change vs veh, CAPN2 / RFU, MED14 / Fold change vs veh, MED14 / RFU, SNORA58 / Fold change vs veh, SNORA58 / RFU, C1orf63 / Fold change vs veh, C1orf63 / RFU, LRRFIP1 / Fold change vs veh, LRRFIP1 / RFU, NDUFAF7 / Fold change vs veh, NDUFAF7 / RFU, SLC12A2 / Fold change vs veh, SLC12A2 / RFU, IBTK / Fold change vs veh, IBTK / RFU, ESF1 / Fold change vs veh, ESF1 / Fold change vs veh, TMEM50B / RFU, TAOK1 / Fold change vs veh, TAOK1 / RFU, ACBD3 / Fold change vs veh, ACBD3 / RFU, TMA16 / Fold change vs veh, TMA16 / RFU, RWDD3 / Fold change vs veh, RWDD3 / RFU, BCAT1 / Fold change vs veh, BCAT1 / RFU, EDEM3 / Fold change vs veh, EDEM3 / RFU, TMEM33 / Fold change vs veh, TMEM33 / RFU, WDR75 / Fold change vs veh, WDR75 / RFU, AHCTF1 / Fold change vs veh, AHCTF1 / RFU, TFRC / Fold change vs veh, TFRC / RFU, ZDHHC17 / Fold change vs veh, ZDHHC17 / RFU, NOM1 / Fold change vs veh, NOM1 / RFU, ARL8B / Fold change vs veh, ARL8B / RFU, ZBTB11 / Fold change vs veh, ZBTB11 / RFU, TAMM41 / Fold change vs veh, TAMM41 / RFU, KIAA1704 /// LOC100996395 / Fold change vs veh, KIAA1704 /// LOC100996395 / RFU, ING1 / Fold change vs veh, ING1 / RFU, TRMT61B / Fold change vs veh, TRMT61B / RFU, FUBP3 / Fold change vs veh, FUBP3 / RFU, TP53 / Fold change vs veh, TP53 / RFU, TNKS2 / Fold change vs veh, TNKS2 / RFU, ZFP14 / Fold change vs veh, ZFP14 / RFU, ACTR2 / Fold change vs veh, ACTR2 / RFU, PPP3R1 / Fold change vs veh, PPP3R1 / RFU, PIK3R1 / Fold change vs veh, PIK3R1 / RFU, HNRNPA1 / Fold change vs veh, HNRNPA1 / RFU, RNF170 / Fold change vs veh, RNF170 / RFU, ZNF28 / Fold change vs veh, ZNF28 / RFU, RNGTT / Fold change vs veh, RNGTT / RFU, OGT / Fold change vs veh, OGT / RFU, BRD1 / Fold change vs veh, BRD1 / RFU, MARS / Fold change vs veh, MARS / RFU, ZNF655 / Fold change vs veh, ZNF655 / RFU, FAHD1 / Fold change vs veh, FAHD1 / RFU, BDP1 / Fold change vs veh, BDP1 / RFU, LRRCC1 / Fold change vs veh, LRRCC1 / RFU, ARID1A / Fold change vs veh, ARID1A / RFU, ZNF146 / Fold change vs veh, ZNF146 / RFU, ZNF330 / Fold change vs veh, ZNF330 / RFU, GPN3 / Fold change vs veh, GPN3 / RFU, C9orf123 / Fold change vs veh, C9orf123 / RFU, N4BP2L2 / Fold change vs veh, N4BP2L2 / RFU, ARFIP1 / Fold change vs veh, ARFIP1 / RFU, FAM179B / Fold change vs veh, FAM179B / RFU, BCL10 / Fold change vs veh, BCL10 / RFU, UHRF1BP1L / Fold change vs veh, UHRF1BP1L / RFU, BET1 / Fold change vs veh, BET1 / RFU, CNOT2 / Fold change vs veh, CNOT2 / RFU, ZNF268 / Fold change vs veh, ZNF268 / Fold change vs veh, ZNF507 / RFU, DGCR2 / Fold change vs veh, DGCR2 / RFU, WDSUB1 / Fold change vs veh, WDSUB1 / Fold change vs veh, HSP90B1 /// MIR3652 / RFU, ADSS / Fold change vs veh, ADSS / RFU, GK / Fold change vs veh, GK / RFU, ZNF148 / Fold change vs veh, ZNF148 / RFU, TAF9 / Fold change vs veh, TAF9 / RFU, SLC1A5 / Fold change vs veh, SLC1A5 / RFU, SLMO2 / Fold change vs veh, SLMO2 / RFU, ABCC4 / Fold change vs veh, ABCC4 / RFU, LOC101060439 /// RAP1B / Fold change vs veh, LOC101060439 /// RAP1B / RFU, RFX7 / Fold change vs veh, RFX7 / RFU, GTPBP10 / Fold change vs veh, GTPBP10 / RFU, CNEP1R1 / Fold change vs veh, CNEP1R1 / RFU, BIVM-ERCC5 /// ERCC5 / Fold change vs veh, BIVM-ERCC5 /// ERCC5 / RFU, ILF3 / Fold change vs veh, ILF3 / RFU 11762660_at / Fold change /veh 11762660_at / RFU VCAN (11757783_s_at) / Fold change /veh VCAN (11757783_s_at) / RFU DDX43 (11728927_at) / Fold change /veh DDX43 (11728927_at) / RFU KRT8 (11758188_x_at) / Fold change /veh KRT8 (11758188_x_at) / RFU NKD1 (11759106_at) / Fold change /veh NKD1 (11759106_at) / RFU SRD5A1 (11742802_a_at) / Fold change /veh SRD5A1 (11742802_a_at) / RFU TPSAB1 /// TPSB2 (11721975_s_at) / Fold change /veh TPSAB1 /// TPSB2 (11721975_s_at) / RFU GSTM3 (11746129_a_at) / Fold change /veh GSTM3 (11746129_a_at) / RFU IL23R (11737362_x_at) / Fold change /veh IL23R (11737362_x_at) / RFU TMEM51 (11727254_a_at) / Fold change /veh TMEM51 (11727254_a_at) / RFU PIWIL2 (11732686_x_at) / Fold change /veh PIWIL2 (11732686_x_at) / RFU ORM1 (11744905_x_at) / Fold change /veh ORM1 (11744905_x_at) / RFU CCDC152 (11743942_at) / Fold change /veh CCDC152 (11743942_at) / RFU ECM1 (11717891_a_at) / Fold change /veh ECM1 (11717891_a_at) / RFU IL23R (11748794_a_at) / Fold change /veh IL23R (11748794_a_at) / RFU TNFAIP8L3 (11732012_x_at) / Fold change /veh TNFAIP8L3 (11732012_x_at) / RFU MBOAT4 (11741988_at) / Fold change /veh MBOAT4 (11741988_at) / RFU 11764193_at / Fold change /veh 11764193_at / RFU TMEM53 (11763286_at) / Fold change /veh TMEM53 (11763286_at) / RFU MAGEB2 (11727129_at) / Fold change /veh MAGEB2 (11727129_at) / RFU TMEM200A (11744735_a_at) / Fold change /veh TMEM200A (11744735_a_at) / RFU CCDC152 (11751479_a_at) / Fold change /veh CCDC152 (11751479_a_at) / RFU FAM211A (11726209_a_at) / Fold change /veh FAM211A (11726209_a_at) / RFU RGS16 (11746705_a_at) / Fold change /veh RGS16 (11746705_a_at) / RFU VCAN (11755009_s_at) / Fold change /veh VCAN (11755009_s_at) / RFU RHOB (11743442_s_at) / Fold change /veh RHOB (11743442_s_at) / RFU RGS16 (11720943_a_at) / Fold change /veh RGS16 (11720943_a_at) / RFU RGS16 (11720944_at) / Fold change /veh RGS16 (11720944_at) / RFU, VPS4B / Fold change vs veh, VPS4B / RFU, CREB1 / Fold change vs veh, CREB1 / RFU, DNAJC13 / Fold change vs veh, DNAJC13 / RFU, GNAQ / Fold change vs veh, GNAQ / RFU, CDK5R1 / Fold change vs veh, CDK5R1 / RFU, ZRANB3 / Fold change vs veh, ZRANB3 / RFU, CUL4A / Fold change vs veh, CUL4A / RFU, CCNY / Fold change vs veh, CCNY / RFU, UFL1 / Fold change vs veh, UFL1 / RFU, COG3 / Fold change vs veh, COG3 / RFU, DIAPH2 / Fold change vs veh, DIAPH2 / RFU, SKA2 / Fold change vs veh, SKA2 / RFU, AFF3 / Fold change vs veh, AFF3 / RFU, LMF1 / Fold change vs veh, LMF1 / RFU, IPO11 / Fold change vs veh, IPO11 / RFU, DFFB / Fold change vs veh, DFFB / RFU, FOXP1 / Fold change vs veh, FOXP1 / RFU, CARD8 / Fold change vs veh, CARD8 / RFU, STRN3 / Fold change vs veh, STRN3 / RFU, ADK / Fold change vs veh, ADK / RFU, RASSF2 / Fold change vs veh, RASSF2 / RFU, WIPF1 / Fold change vs veh, WIPF1 / RFU, LARP1B / Fold change vs veh, LARP1B / RFU, RASA1 / Fold change vs veh, RASA1 / RFU, RB1 / Fold change vs veh, RB1 / RFU, PPFIA1 / Fold change vs veh, PPFIA1 / RFU, MAT2A / Fold change vs veh, MAT2A / RFU, CCT5 / Fold change vs veh, CCT5 / RFU, WDR92 / Fold change vs veh, WDR92 / RFU, CUX1 / Fold change vs veh, CUX1 / RFU, TTC7A / Fold change vs veh, TTC7A / RFU, TMEM135 / Fold change vs veh, TMEM135 / RFU, DEPTOR / Fold change vs veh, DEPTOR / RFU, CPM / Fold change vs veh, CPM / RFU, DNAJB6 / Fold change vs veh, DNAJB6 / RFU, CACNA2D3 / Fold change vs veh, CACNA2D3 / RFU, DTX4 / Fold change vs veh, DTX4 / RFU, TFCP2 / Fold change vs veh, TFCP2 / RFU, GMCL1 /// GMCL1P1 / Fold change vs veh, GMCL1 /// GMCL1P1 / RFU, AEBP2 / Fold change vs veh, AEBP2 / RFU, SNHG1 /// SNORD22 /// SNORD25 /// SNORD26 /// SNORD27 /// SNORD28 /// SNORD29 /// SNORD31 / Fold change vs veh, SNHG1 /// SNORD22 /// SNORD25 /// SNORD26 /// SNORD27 /// SNORD28 /// SNORD29 /// SNORD31 / Fold change (Aza/veh), C12orf56 (ProbeSet 11735607_a_at) / Fold change (ACY-1035/veh), C12orf56 (ProbeSet 11735607_a_at) / Fold change (Aza/veh), FGFR1OP (ProbeSet 11751329_s_at) / Fold change (ACY-1035/veh), FGFR1OP (ProbeSet 11751329_s_at) / Fold change (Aza/veh), VPS36 (ProbeSet 11739960_a_at) / Fold change (ACY-1035/veh), VPS36 (ProbeSet 11739960_a_at) / RFU SYPL1 (11715823_x_at) / Fold change /veh SYPL1 (11715823_x_at) / RFU IGFBP7 (11715501_s_at) / Fold change /veh IGFBP7 (11715501_s_at) / RFU REEP3 (11722064_at) / Fold change /veh REEP3 (11722064_at) / RFU IGLL1 (11728026_x_at) / Fold change /veh IGLL1 (11728026_x_at): dose or concentration left out as unconfirmed
Settings: ProbeSet 11745789_a_at; LIST D

Nc1ncn([C@@H]2O[C@H](CO)[C@@H](O)[C@H]2O)c(=O)n1 [azacitidine]
Fold change vs veh, TMEM135: 0.56
